What all share (test): MIC by standard agar dilution test
Common to all, as to type: cell-based

One assay deals with Proteus morganii PR15. To be noted: Morganella morganii, Table 1, read-out: Minimum Inhibitory Concentration. From the text: (§1) The antibacterial activity of the antibiotic compounds of this invention is illustrated by the following in vitro and in vivo test data obtained with representative compounds. In Tables I and II, the minimum inhibitory concentration (MIC) for representative compounds against a wide range of gram-positive and gram-negative bacteria are presented. The MIC values were obtained by the standard agar dilution test.

For assay [1], the system named is Citrobacter freundii CF17. Conditions: Table 1, read-out: Minimum Inhibitory Concentration.
Source text: as §1

In assay [2] the test system is Staphylococcus epidermidis EPI2. Conditions: Table 1, read-out: Minimum Inhibitory Concentration.
Source text: as §1

Assay [3] has as its system Pseudomonas aeruginosa X48. Conditions: Table II, read-out: Minimum Inhibitory Concentration.
Source text: as §1

Another assay relates to Proteus morganii PR1. To be noted: Morganella morganii, Table II, read-out: Minimum Inhibitory Concentration.
Source text: as §1

Assay [4] deals with Salmonella heidelberg X514. Conditions: Salmonella enterica, Table 1, read-out: Minimum Inhibitory Concentration.
Source text: as §1

Another assay concerns Proteus inconstans PR33. Conditions: Providencia alcalifaciens, Table 1, read-out: Minimum Inhibitory Concentration.
Source text: as §1

The test system of assay [5] is Haemophilus influenzae HOLT. Conditions: Table 1, read-out: Minimum Inhibitory Concentration.
Source text: as §1

For assay [6], the system named is Enterobacter cloacae EB24. To be noted: Table II; Enterobacter cloacae EB24; agar dilution; read-out: Minimum Inhibitory Concentration.
Source text: as §1
For orientation: In agar dilution the substance is mixed into plates at graded concentrations.

Assay [7] has as its system Streptococcus group D X66. To be noted: DX66, Table 1, read-out: Minimum Inhibitory Concentration.
Source text: as §1

The test system of assay [8] is Bordetella bronchiseptica 16. To be noted: Bordetella bronchiseptica, 16, read-out: Minimum Inhibitory Concentration.
Source text: as §1

Assay [9] has as its system Enterobacter aerogenes EB17. To be noted: Klebsiella aerogenes, Table 1, read-out: Minimum Inhibitory Concentration.
Source text: as §1

Molecules are shown by their SMILES. Converted amounts (≈) assume the structure as drawn.

On to `CN[C@@H]1[C@@H](O[C@H]2O[C@H](CO)[C@@H](NC(C)=O)[C@H](O)[C@H]2O)O[C@H]2C[C@@H](N)[C@@H](O[C@H]3[C@H](O)[C@@H](O)[C@H](N)C[C@@H]3N)O[C@@H]2[C@@H]1O` [Test Compound 1, 4"-N-Acetylapramycin], for which the MIC with Proteus morganii PR15 worked out at 32 µg/mL (≈ 55 µM); in assay [1], 32 µg/mL (≈ 55 µM); in assay [2] it was 64 µg/mL (≈ 110 µM); in [3] it was 32 µg/mL (≈ 55 µM); with Proteus morganii PR1, 8 µg/mL (≈ 13.8 µM); in [4], 32 µg/mL (≈ 55 µM). Besides, the MIC in the assay with Proteus inconstans PR33 is 16 µg/mL (≈ 27.5 µM); in [5], 16 µg/mL (≈ 27.5 µM); in assay [6], 8 µg/mL (≈ 13.8 µM); in [7] it was more than 128 µg/mL; in assay [8], 128 µg/mL (≈ 220 µM); in assay [9], 16 µg/mL (≈ 27.5 µM).

These data come from US4360665A, “4"-N-(Substituted)-apramycin antibiotic derivatives and intermediates therefor” (Eli Lilly and Company, priority 1981, dated 1982).
